# Counter-ions that a name gives are not always drawn.
# Experiment: Phase 1a study: pharmacokinetics after oral BID dosing in subjects with advanced solid tumors
# Type: in vivo, human
# Design: Increase in mean: scale not given here
# Experimental: This example describes a first in human, Phase 1a, multi-center, open-label study to establish the maximum tolerated dose (MTD) and evaluate the safety and tolerability of oral dosing of Form A of the hemi-fumarate salt of the compound of formula (I) (Example 11) in a dose-escalating fashion. Form A of the hemi-fumarate salt was orally administered BID every day with food or within 30 minutes of completing a meal, starting at 25 mg, with doses escalating to 50, 100, 200, 400, 600, and 900 mg BID as safety allows for each 3-week treatment cycle.
# Up to 36 qualified subjects at 3 to 5 US sites, who have specific tumor types of renal cell carcinoma (RCC), gastric cancer (GC), metastatic breast cancer (MBC), small cell lung cancer (SCLC), and other solid tumors (e.g., non-small cell lung cancer, colorectal cancer, carcinoma of unknown primary) with the exception of rapidly progressing neoplasms (e.g., pancreatic cancer, glioblastoma, hepatocellular carcinoma) received Form A of the hemi-fumarate salt. Every effort was made to ensure approximately 50% of all subjects enrolled were subjects with RCC and GC. The starting dose level was 25 mg twice daily (BID), escalating to 50, 100, and 200 mg BID as safety allows, following the Bayesian Optimal Interval (BOIN) design. The safety monitoring committee (SMC) evaluated the dose-limiting toxicities (DLTs) and cumulative safety and PK data at the end of each cohort. Based on the SMC recommendations after a comprehensive review of PK and safety data for 200 mg BID dose, higher dose levels were evaluated, starting with 400 mg BID. The dose escalated to 600 mg and then 900 mg following the BOIN design starting with 1 subject at each escalated dose, until the MTD was reached or the sponsor or SMC declares the dose most appropriate for clinical development. This Phase 1a will be expanded into a Phase 1b/2a study through a protocol amendment and will then assess the dose and tumor type(s) selected in Phase 1a as the most appropriate for further clinical development. Subjects were dosed until unacceptable toxicity, disease progression per immune-related Response Evaluation Criteria in Solid Tumors (iRECIST), subject withdrawal, any other administrative reasons, or after 2 years of treatment, whichever occurs first. Efficacy was assessed via Response Evaluation Criteria in Solid Tumors 1.1 (RECIST 1.1); computed tomography (CT) scans were conducted every 6 weeks. Safety, including occurrence of dose-limiting toxicities (DLTs), pharmacokinetics (PK), and biomarker parameters were also assessed.
# Form A of the hemi-fumarate salt was orally administered BID with food or within 30 minutes of completing a meal, starting at 25 mg, with doses escalating to 50, 100, 200, 400, 600 and 900 mg BID as safety allowed. Up to 24 subjects were enrolled to ensure 12 subjects completed the study at the estimated MTD of Form A of the hemi-fumarate salt. Dosing occurred in 3-week cycles. Subjects spent Cycle 1/Day 1 (C1D1) in the clinic followed by an overnight stay for safety monitoring and PK sampling. Subjects were hospitalized for administration of first 3 doses: CID1 am and pm doses, and Cycle 1/Day 2 (C1D2) am dose; on Days 8, 15, and 21 the am dose was taken in the clinic after the planned PK samples. All other doses were self administered at home.
# Results of Cohorts 1 to 6 the study are detailed in Tables 47-50 below.
# [1] = 25 mg single oral dose, Cycle 1 Day 1, geometric mean, N = 3
# [2] = 25 mg twice daily oral, Cycle 1 Day 21, geometric mean, N = 3
# [3] = 50 mg single oral dose, Cycle 1 Day 1, geometric mean, N = 3
# [4] = 50 mg twice daily oral, Cycle 1 Day 21, geometric mean, N = 3
# [5] = 100 mg single oral dose, Cycle 1 Day 1, geometric mean, N = 4
# [6] = 100 mg twice daily oral, Cycle 1 Day 21, geometric mean, N = 3
# [7] = 200 mg single oral dose, Cycle 1 Day 1, geometric mean, N = 5
# [8] = 200 mg twice daily oral, Cycle 1 Day 21, geometric mean, N = 4
# [9] = 300 mg single oral dose, Cycle 1 Day 1, geometric mean, N = 4
# [10] = 300 mg twice daily oral, Cycle 1 Day 21, point estimate, N = 1
# [11] = 400 mg single oral dose, Cycle 1 Day 1, geometric mean, N = 3
# [12] = 400 mg twice daily oral, Cycle 1 Day 21, geometric mean, N = 2
# [13] = 600 mg single oral dose, Cycle 1 Day 1, point estimate, N = 1
# [14] = 600 mg twice daily oral, Cycle 1 Day 21, point estimate, N = 1
compound,measurement,setting,value
"Cc1cc(NC(=O)[C@H](O)c2cc(F)cc(F)c2)ccc1-c1cnc(N)c(C(=O)NC(C)C)c1 [Form A of the hemi-fumarate salt, (R)-2-amino-5-(4-(2-(3,5-difluorophenyl)-2-hydroxyacetamido)-2-methylphenyl)-N-isopropylnicotinamide]",% AUCextrap,[1],46.8%
same,CL/F,[1],11.4 L/h
same,DAUC0-12,[1],34.0 ng·h/mL/mg
same,DAUC0-last,[1],34.0 ng·h/mL/mg
same,DCmax,[1],4.79 ng/mL/mg
same,tlast,"25 mg single oral dose, Cycle 1 Day 1, median, N = 3",12.00 h
same,ARAUC,[2],4.84
same,CL/F,[2],6.08 L/h
same,Ctrough,[2],359 ng/mL
same,DAUC0-last,[2],164 ng·h/mL/mg
same,DAUC0-τ,[2],164 ng·h/mL/mg
same,DCmax,[2],21.5 ng/mL/mg
same,% AUCextrap,[3],51.8%
same,CL/F,[3],8.85 L/h
same,DAUC0-12,[3],41.8 ng·h/mL/mg
same,DAUC0-last,[3],41.8 ng·h/mL/mg
same,DCmax,[3],4.87 ng/mL/mg
same,tlast,"50 mg single oral dose, Cycle 1 Day 1, median, N = 3",12.00 h
same,ARAUC,[4],4.34
same,CL/F,[4],5.51 L/h
same,Ctrough,[4],780 ng/mL
same,DAUC0-last,[4],181 ng·h/mL/mg
same,DAUC0-τ,[4],181 ng·h/mL/mg
same,DCmax,[4],19.6 ng/mL/mg
same,Increase in mean,"50 mg vs preceding dose level (25 mg), single oral dose, Cycle 1 Day 1",2.46
same,Increase in mean,"50 mg vs preceding dose level (25 mg), twice daily oral, Cycle 1 Day 21",2.21
same,DAUC0-12,[5],28.0 ng·h/mL/mg
same,DAUC0-last,[5],19.3 ng·h/mL/mg
same,DCmax,[5],3.80 ng/mL/mg
same,tlast,"100 mg single oral dose, Cycle 1 Day 1, median, N = 4",12.00 h
same,ARAUC,[6],4.19
same,CL/F,[6],8.53 L/h
same,Ctrough,[6],777 ng/mL
same,DAUC0-last,[6],117 ng·h/mL/mg
same,DAUC0-τ,[6],117 ng·h/mL/mg
same,DCmax,[6],13.1 ng/mL/mg
same,Increase in mean,"100 mg vs preceding dose level (50 mg), single oral dose, Cycle 1 Day 1",1.34
same,Increase in mean,"100 mg vs preceding dose level (50 mg), twice daily oral, Cycle 1 Day 21",1.29
same,% AUCextrap,[7],58.7%
same,CL/F,[7],11.1 L/h
same,DAUC0-12,[7],29.0 ng·h/mL/mg
same,DAUC0-last,[7],29.0 ng·h/mL/mg
same,DCmax,[7],4.19 ng/mL/mg
same,tlast,"200 mg single oral dose, Cycle 1 Day 1, median, N = 5",12.00 h
same,ARAUC,[8],4.90
same,CL/F,[8],7.36 L/h
same,Ctrough,[8],1860 ng/mL
same,DAUC0-last,[8],136 ng·h/mL/mg
same,DAUC0-τ,[8],136 ng·h/mL/mg
same,DCmax,[8],14.9 ng/mL/mg
same,Increase in mean,"200 mg vs preceding dose level (100 mg), single oral dose, Cycle 1 Day 1",2.07
same,Increase in mean,"200 mg vs preceding dose level (100 mg), twice daily oral, Cycle 1 Day 21",2.32
same,% AUCextrap,[9],30.5%
same,CL/F,[9],62.4 L/h
same,DAUC0-12,[9],28.7 ng·h/mL/mg
same,DAUC0-last,[9],28.7 ng·h/mL/mg
same,DCmax,[9],3.80 ng/mL/mg
same,tlast,"300 mg single oral dose, Cycle 1 Day 1, median, N = 4",12.00 h
same,ARAUC,[10],2.87
same,CL/F,[10],10.5 L/h
same,Ctrough,[10],1770 ng/mL
same,DAUC0-last,[10],94.8 ng·h/mL/mg
same,DAUC0-τ,[10],94.8 ng·h/mL/mg
same,DCmax,[10],10.1 ng/mL/mg
same,Increase in mean,"300 mg vs preceding dose level (200 mg), single oral dose, Cycle 1 Day 1",1.48
same,Increase in mean,"300 mg vs preceding dose level (200 mg), twice daily oral, Cycle 1 Day 21",1.05
same,% AUCextrap,[11],33.6%
same,CL/F,[11],24.5 L/h
same,DAUC0-12,[11],9.58 ng·h/mL/mg
same,DAUC0-last,[11],9.58 ng·h/mL/mg
same,DCmax,[11],1.62 ng/mL/mg
same,tlast,"400 mg single oral dose, Cycle 1 Day 1, min-max, N = 3",(12.00-12.00) h
same,ARAUC,[12],5.15
same,CL/F,[12],7.82 L/h
same,Ctrough,[12],3060 ng/mL
same,DAUC0-last,[12],77.0 ng·h/mL/mg
same,DAUC0-τ,[12],128 ng·h/mL/mg
same,DCmax,[12],9.20 ng/mL/mg
same,Increase in mean,"400 mg vs preceding dose level (300 mg), single oral dose, Cycle 1 Day 1",0.44
same,Increase in mean,"400 mg vs preceding dose level (300 mg), twice daily oral, Cycle 1 Day 21",1.80
same,DAUC0-12,[13],19.4 ng·h/mL/mg
same,DAUC0-last,[13],19.4 ng·h/mL/mg
same,DCmax,[13],2.43 ng/mL/mg
same,tlast,[13],12.00 h
same,ARAUC,[14],5.22
same,CL/F,[14],9.87 L/h
same,Ctrough,[14],5680 ng/mL
same,DAUC0-last,[14],101 ng·h/mL/mg
same,DAUC0-τ,[14],101 ng·h/mL/mg
same,DCmax,[14],9.98 ng/mL/mg

# Source: patent US20260265199A1, “CRYSTALLINE FORMS OF (R)-2-AMINO-5-(4-(2-(3,5-DIFLUOROPHENYL)-2-HYDROXYACETAMIDO)-2-METHYLPHENYL)-N-ISOPROPYLNICOTINAMIDE AND METHODS FOR USING THE SAME” (HIBERCELL, INC., priority 2023, published 2026)
